How the values were obtained:
[1] = biological target: T1, AR (L702H) in LNCaP cells (Homo sapiens, UniProt P10275, L702H/T878A); assay: LNCaP Androgen Receptor L702H Imaging Assay (LNCaP cells engineered by CRISPR/Cas9); format: cell-based; settings: LNCaP cells with AR L702H mutation, 24 h incubation; for DC50: concentration giving 50% of maximum degradation of AR (L702H) per curve fit; for Dmax: LNCaP, maximum degradation observed, normalized as % of positive control
T1 construct: engineered to introduce the mutation L702H into the AR gene using CRISPR/Cas9; endogenous in cells; host or cells: LNCaP cells edited by CRISPR/Cas9 at the AR gene
Summary of the method: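 CRISPR-engineered LNCaP cells carrying AR L702H were treated 24 h at 37 °C with a 12-point compound dose response (0.3% DMSO), then fixed and immunostained for AR with DRAQ5 nuclear counterstain. Nuclear AR was quantified by imaging, normalized to positive control; DC50 and Dmax came from Hill or bell-shaped fits.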

[2] = biological target: T2, AR (AR-full length) in LNCaP cells (Homo sapiens, UniProt P10275, T878A); assay: LNCaP Androgen Receptor Imaging Assay (immunofluorescence of endogenous nuclear AR); format: cell-based; settings: 24 h incubation; for DC50: concentration giving 50% of maximum degradation of AR per curve fit, single experiment or average of two or more; for Dmax: LNCaP, maximum degradation observed, normalized as % of positive control (prior art AR PROTAC at 3 μM)
T2 construct: the prostate cancer cell line LNCaP (expressing AR-full length); endogenous in cells; host or cells: LNCaP
Summary of the method: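 LNCaP cells (12,000/well) received a 12-point compound dose series (0.3% DMSO) for 24 h at 37° C., then were PFA-fixed and stained for AR (AR441) and nuclei (DRAQ5). Nuclear AR was quantified by imaging, normalized to a 3 μM AR PROTAC control; DC50 and Dmax came from Hill/bell curve fits.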

T2 sequence (P10275 whole entry T878A): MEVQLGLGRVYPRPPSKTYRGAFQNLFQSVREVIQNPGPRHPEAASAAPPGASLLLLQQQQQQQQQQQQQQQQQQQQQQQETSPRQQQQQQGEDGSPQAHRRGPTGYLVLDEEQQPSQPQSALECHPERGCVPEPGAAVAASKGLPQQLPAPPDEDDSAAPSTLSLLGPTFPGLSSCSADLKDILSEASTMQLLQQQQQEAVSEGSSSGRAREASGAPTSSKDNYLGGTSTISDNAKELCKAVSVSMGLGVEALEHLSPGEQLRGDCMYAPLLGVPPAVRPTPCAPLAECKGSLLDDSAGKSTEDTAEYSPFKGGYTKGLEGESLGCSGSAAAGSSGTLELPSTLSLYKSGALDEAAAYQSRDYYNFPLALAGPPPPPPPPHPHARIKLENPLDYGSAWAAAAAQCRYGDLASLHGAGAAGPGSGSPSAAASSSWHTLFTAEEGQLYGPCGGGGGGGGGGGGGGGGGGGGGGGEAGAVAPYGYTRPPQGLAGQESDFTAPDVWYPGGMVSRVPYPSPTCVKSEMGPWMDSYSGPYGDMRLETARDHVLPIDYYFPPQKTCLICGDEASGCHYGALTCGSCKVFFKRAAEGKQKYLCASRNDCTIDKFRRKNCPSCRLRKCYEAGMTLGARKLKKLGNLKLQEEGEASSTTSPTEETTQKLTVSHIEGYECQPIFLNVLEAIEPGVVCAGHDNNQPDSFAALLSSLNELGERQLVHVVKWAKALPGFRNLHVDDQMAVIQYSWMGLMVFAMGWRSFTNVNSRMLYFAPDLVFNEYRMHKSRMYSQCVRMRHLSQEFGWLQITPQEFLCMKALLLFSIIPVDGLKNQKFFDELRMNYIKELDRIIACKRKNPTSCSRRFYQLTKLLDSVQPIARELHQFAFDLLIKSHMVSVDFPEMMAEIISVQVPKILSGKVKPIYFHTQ
T2 sequence (Q96SW2 whole entry partner): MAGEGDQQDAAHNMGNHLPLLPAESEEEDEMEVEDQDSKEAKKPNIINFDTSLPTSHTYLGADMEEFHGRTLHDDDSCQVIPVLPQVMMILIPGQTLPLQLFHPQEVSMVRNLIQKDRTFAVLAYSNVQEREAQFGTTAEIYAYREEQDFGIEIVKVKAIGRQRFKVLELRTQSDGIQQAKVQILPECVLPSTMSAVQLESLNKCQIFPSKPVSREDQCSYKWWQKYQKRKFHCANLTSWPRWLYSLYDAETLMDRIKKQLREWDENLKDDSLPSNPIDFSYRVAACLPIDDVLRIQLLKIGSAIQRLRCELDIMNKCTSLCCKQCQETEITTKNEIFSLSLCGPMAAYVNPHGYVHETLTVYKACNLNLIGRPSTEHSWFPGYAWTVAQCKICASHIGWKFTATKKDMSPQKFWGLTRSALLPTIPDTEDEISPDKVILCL
T1 sequence (P10275 whole entry L702H/T878A): as the sequence (P10275 whole entry T878A) above, with L702H counted along it
T1 sequence (Q96SW2 whole entry partner): as the sequence (Q96SW2 whole entry partner) above

| DC50 [1] | Dmax [1] | DC50 [2] | Dmax [2] | SMILES |
| --- | --- | --- | --- | --- |
| 5 nM | 97% | 6 nM | 88% | N#Cc1c[nH]c2c(N3CCC(c4ccc(N5CCC(N6CCN(c7ccc8c(c7)CN(C7CCC(=O)NC7=O)C8=O)CC6)CC5)cc4)CC3)ccc(Cl)c12 (stereo not shown) [Example 110, 4-Chloro-7-{4-[4-(4-{4-[2-(2,6-dioxopiperidin-3-yl)-1-oxo-2,3-dihydro-1H-isoindol-5-yl]piperazin-1-yl}piperidin-1-yl)phenyl]piperidin-1-yl}-1H-indole-3-carbonitrile] |
| 36 nM | 76% | 19 nM | 92% | N#Cc1c[nH]c2c(N3CCC(c4cccc(N5CCC(CN6CCN(c7ccc8c(c7)CN(C7CCC(=O)NC7=O)C8=O)CC6)CC5)c4)CC3)ccc(Cl)c12 (stereo not shown) [Example 113, 4-Chloro-7-(4-{3-[4-({4-[2-(2,6-dioxopiperidin-3-yl)-1-oxo-2,3-dihydro-1H-isoindol-5-yl]piperazin-1-yl}methyl)piperidin-1-yl]phenyl}piperidin-1-yl)-1H-indole-3-carbonitrile] |
| 4 nM | 110% | 4 nM | 100% | N#Cc1c[nH]c2c(N3CCC(c4ccc(N5CCO[C@H](CN6CCN(c7ccc8c(c7)CN(C7CCC(=O)NC7=O)C8=O)CC6)C5)cc4)CC3)ccc(Cl)c12 (stereo partly drawn) [Example 127, 4-Chloro-7-(4-{4-[(2R)-2-({4-[2-(2,6-dioxopiperidin-3-yl)-1-oxo-2,3-dihydro-1H-isoindol-5-yl]piperazin-1-yl}methyl)morpholin-4-yl]phenyl}piperidin-1-yl)-1H-indole-3-carbonitrile] |
| 61 nM | 103% | 26 nM | 102% | N#Cc1c[nH]c2c(N3CCC(c4ccc(N5CC6(CCC(CN7CCN(c8ccc9c(c8)CN(C8CCC(=O)NC8=O)C9=O)CC7)CC6)C5)cc4)CC3)ccc(F)c12 (stereo not shown) [Example 128, 7-(4-{4-[7-({4-[2-(2,6-Dioxopiperidin-3-yl)-1-oxo-2,3-dihydro-1H-isoindol-5-yl]piperazin-1-yl}methyl)-2-azaspiro[3.5]nonan-2-yl]phenyl}piperidin-1-yl)-4-fluoro-1H-indole-3-carbonitrile] |
| 29 nM | 99% | 20 nM | 95% | N#Cc1c[nH]c2c(N3CCC(c4ccc(N5CC6(CCC(CN7CCN(c8ccc9c(c8)CN(C8CCC(=O)NC8=O)C9=O)CC7)CC6)C5)cc4)CC3)ccc(Cl)c12 (stereo not shown) [Example 129, 4-Chloro-7-(4-{4-[7-({4-[2-(2,6-dioxopiperidin-3-yl)-1-oxo-2,3-dihydro-1H-isoindol-5-yl]piperazin-1-yl}methyl)-2-azaspiro[3.5]nonan-2-yl]phenyl}piperidin-1-yl)-1H-indole-3-carbonitrile] |
| 42 nM | 78% | 31 nM | 99% | N#Cc1c[nH]c2c(N3CCC[C@@H](c4ccc(N5CC6(CCC(CN7CCN(c8ccc9c(c8)CN(C8CCC(=O)NC8=O)C9=O)CC7)CC6)C5)cc4)C3)ccc(Cl)c12 (stereo partly drawn) [Example 130, 4-Chloro-7-[(3S)-3-{4-[7-({4-[2-(2,6-dioxopiperidin-3-yl)-1-oxo-2,3-dihydro-1H-isoindol-5-yl]piperazin-1-yl}methyl)-2-azaspiro[3.5]nonan-2-yl]phenyl}piperidin-1-yl]-1H-indole-3-carbonitrile] |
| 8 nM | 97% | 4 nM | 103% | N#Cc1n[nH]c2c(N3CCC[C@@H](c4ccc(N5CCC(CN6CCN(c7ccc8c(c7)CN(C7CCC(=O)NC7=O)C8=O)CC6)CC5)cc4)C3)ccc(F)c12 (stereo partly drawn) [Example 133, 7-[(3S)-3-{4-[4-({4-[2-(2,6-Dioxopiperidin-3-yl)-1-oxo-2,3-dihydro-1H-isoindol-5-yl]piperazin-1-yl}methyl)piperidin-1-yl]phenyl}piperidin-1-yl]-4-fluoro-1H-indazole-3-carbonitrile] |

Further lines, the compound ahead of its results:

| SMILES | DC50 [1] | Dmax [1] | DC50 [2] | Dmax [2] |
| --- | --- | --- | --- | --- |
| N#Cc1c[nH]c2c(N3CCC(c4ccc(N5CCC(CN6CCN(c7ccc8c(c7)CN(C7CCC(=O)NC7=O)C8=O)CC6)CC5)nc4)CC3)ccc(Cl)c12 (stereo not shown) [Example 109, 4-Chloro-7-(4-{6-[4-({4-[2-(2,6-dioxopiperidin-3-yl)-1-oxo-2,3-dihydro-1H-isoindol-5-yl]piperazin-1-yl}methyl)piperidin-1-yl]pyridin-3-yl}piperidin-1-yl)-1H-indole-3-carbonitrile] | 10 nM | 96% | 5 nM | 97% |
| N#Cc1c[nH]c2c(N3CCC(c4ccc(N5CCC(N6CCC(n7ccc8c(N9CCC(=O)NC9=O)cccc87)CC6)CC5)cc4)CC3)ccc(Cl)c12 [Example 111, 4-Chloro-7-[4-(4-{4-[4-(2,4-dioxo-1,3-diazinan-1-yl)-1H-indol-1-yl][1,4′-bipiperidin]-1′-yl}phenyl)piperidin-1-yl]-1H-indole-3-carbonitrile] | 5 nM | 106% | 4 nM | 99% |
| COc1cc(N2CCN(CC3CCN(c4ccc(C5CCN(c6ccc(Cl)c7c(C#N)cn(C)c67)CC5)cc4)CC3)CC2)cc2c1C(=O)N(C1CCC(=O)NC1=O)C2 (stereo not shown) [Example 112, 4-chloro-7-(4-{4-[4-({4-[2-(2,6-dioxopiperidin-3-yl)-7-methoxy-1-oxo-2,3-dihydro-1H-isoindol-5-yl]piperazin-1-yl}methyl)piperidin-1-yl]phenyl}piperidin-1-yl)-1-methyl-1H-indole-3-carbonitrile] | 17 nM | 87% | > 3000 nM | – |
| Cc1cc2c(N3CCC(=O)NC3=O)cccc2n1C1CCN(CC2CCN(c3ccc([C@@H]4CCCN(c5ccc(Cl)c6c(C#N)c[nH]c56)C4)cc3)CC2)CC1 [Example 114, 4-Chloro-7-[(3S)-3-{4-[4-({4-[4-(2,4-dioxo-1,3-diazinan-1-yl)-2-methyl-1H-indol-1-yl]piperidin-1-yl}methyl)piperidin-1-yl]phenyl}piperidin-1-yl]-1H-indole-3-carbonitrile] | 31 nM | 101% | 19 nM | 101% |
| Cc1cc2c(N3CCC(=O)NC3=O)cccc2n1C1CCN(CC2CCN(c3ccc(C4CCN(c5ccc(Cl)c6c(C#N)c[nH]c56)CC4)cc3)CC2)CC1 [Example 123, 4-Chloro-7-(4-{4-[4-({4-[4-(2,4-dioxo-1,3-diazinan-1-yl)-2-methyl-1H-indol-1-yl]piperidin-1-yl}methyl)piperidin-1-yl]phenyl}piperidin-1-yl)-1H-indole-3-carbonitrile] | 18 nM | 104% | 14 nM | 95% |
| N#Cc1c[nH]c2c(N3CCC(c4cnc(N5CCC(CN6CCN(c7ccc8c(c7)CN(C7CCC(=O)NC7=O)C8=O)CC6)CC5)nc4)CC3)ccc(Cl)c12 (stereo not shown) [Example 124, 4-Chloro-7-(4-{2-[4-({4-[2-(2,6-dioxopiperidin-3-yl)-1-oxo-2,3-dihydro-1H-isoindol-5-yl]piperazin-1-yl}methyl)piperidin-1-yl]pyrimidin-5-yl}piperidin-1-yl)-1H-indole-3-carbonitrile] | 9 nM | 93% | 3 nM | 95% |
| N#Cc1c[nH]c2c(N3CCC(c4cnc(N5CCC(CN6CCC(n7ccc8c(N9CCC(=O)NC9=O)cccc87)CC6)CC5)nc4)CC3)ccc(Cl)c12 [Example 125, 4-Chloro-7-(4-{2-[4-({4-[4-(2,4-dioxo-1,3-diazinan-1-yl)-1H-indol-1-yl]piperidin-1-yl}methyl)piperidin-1-yl]pyrimidin-5-yl}piperidin-1-yl)-1H-indole-3-carbonitrile] | 9 nM | 93% | 4 nM | 102% |
| N#Cc1c[nH]c2c(N3CCC(c4ccc(N5CCO[C@H](CN6CCN(c7ccc8c(c7)CN(C7CCC(=O)NC7=O)C8=O)CC6)C5)cc4)CC3)ccc(F)c12 (stereo partly drawn) [Example 126, 7-(4-{4-[(2R)-2-({4-[2-(2,6-dioxopiperidin-3-yl)-1-oxo-2,3-dihydro-1H-isoindol-5-yl]piperazin-1-yl}methyl)morpholin-4-yl]phenyl}piperidin-1-yl)-4-fluoro-1H-indole-3-carbonitrile] | 2 nM | 107% | 4 nM | 98% |
| N#Cc1c[nH]c2c(N3CCC[C@@H](c4ccc(N5CC6(CCC(CN7CCC(n8ccc9c(N%10CCC(=O)NC%10=O)cccc98)CC7)CC6)C5)cc4)C3)ccc(Cl)c12 [Example 131, 4-Chloro-7-[(3S)-3-{4-[7-({4-[4-(2,4-dioxo-1,3-diazinan-1-yl)-1H-indol-1-yl]piperidin-1-yl}methyl)-2-azaspiro[3.5]nonan-2-yl]phenyl}piperidin-1-yl]-1H-indole-3-carbonitrile] | 41 nM | 94% | 17 nM | 105% |
| Cn1c(C2CCN(CC3CCN(c4ccc([C@H]5CCCN(c6ccc(Cl)c7c(C#N)n[nH]c67)C5)cc4)CC3)CC2)cc2ccc(N3CCC(=O)NC3=O)cc21 [Example 132, 4-Chloro-7-[(3R)-3-{4-[4-({4-[6-(2,4-dioxo-1,3-diazinan-1-yl)-1-methyl-1H-indol-2-yl]piperidin-1-yl}methyl)piperidin-1-yl]phenyl}piperidin-1-yl]-1H-indazole-3-carbonitrile] | 5 nM | 115% | 6 nM | 98% |
